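The compound was tested at five concentrations on cells cultured in 96-well plates, with a 48-hour exposure period. TGI marks complete inhibition of growth.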
Columns and labels:
Test in all cases: DTP human tumour cell line panel, 48 h
SN12C renal = system: SN12C renal
MOLT-4 leukemia = system: MOLT-4 leukemia
RPMI-8226 leukemia = system: RPMI-8226 leukemia
MALME-3M melanoma = system: MALME-3M melanoma
U251 CNS = system: U251 CNS
COLO 205 colon = system: COLO 205 colon
SR leukemia = system: SR leukemia
SW-620 colon = system: SW-620 colon
SF-268 CNS = system: SF-268 CNS
NCI-H226 lung = system: NCI-H226 lung
TK-10 renal = system: TK-10 renal
MDA-MB-231 breast = system: MDA-MB-231 breast
MDA-MB-435 = system: MDA-MB-435
NCI-H522 lung = system: NCI-H522 lung
DU-145 prostate = system: DU-145 prostate
BT-549 breast = system: BT-549 breast
SK-MEL-2 melanoma = system: SK-MEL-2 melanoma
HOP-62 NSCLC = system: HOP-62 NSCLC
SF-295 CNS = system: SF-295 CNS
SNB-75 CNS = system: SNB-75 CNS
HS 578T breast = system: HS 578T breast
HCC-2998 colon = system: HCC-2998 colon
UO-31 renal = system: UO-31 renal
CAKI-1 renal = system: CAKI-1 renal
HCT-116 colon = system: HCT-116 colon
IGROV1 ovarian = system: IGROV1 ovarian
HL-60(TB) leukemia = system: HL-60(TB) leukemia
OVCAR-4 ovarian = system: OVCAR-4 ovarian
NCI-H23 lung = system: NCI-H23 lung
NCI/ADR-RES ovarian = system: NCI/ADR-RES ovarian
K-562 leukemia = system: K-562 leukemia
OVCAR-5 ovarian = system: OVCAR-5 ovarian
KM12 colon = system: KM12 colon
LOX IMVI melanoma = system: LOX IMVI melanoma
SK-MEL-28 melanoma = system: SK-MEL-28 melanoma
UACC-62 melanoma = system: UACC-62 melanoma
ACHN renal = system: ACHN renal
MDA-N = system: MDA-N
EKVX NSCLC = system: EKVX NSCLC
SK-MEL-5 melanoma = system: SK-MEL-5 melanoma
A498 renal = system: A498 renal
HCT-15 colon = system: HCT-15 colon
OVCAR-8 ovarian = system: OVCAR-8 ovarian
SNB-19 CNS = system: SNB-19 CNS
OVCAR-3 ovarian = system: OVCAR-3 ovarian
RXF 393 renal = system: RXF 393 renal
UACC-257 melanoma = system: UACC-257 melanoma
PC-3 prostate = system: PC-3 prostate
T-47D breast = system: T-47D breast
NCI-H460 lung = system: NCI-H460 lung
786-0 renal = system: 786-0 renal
MCF7 breast = system: MCF7 breast
HT29 colon = system: HT29 colon
A549 NSCLC = system: A549 NSCLC
SF-539 CNS = system: SF-539 CNS
CCRF-CEM leukemia = system: CCRF-CEM leukemia
M14 melanoma = system: M14 melanoma
SK-OV-3 ovarian = system: SK-OV-3 ovarian

O=C1/C(=C/c2cc3c(=O)c4ccccc4sc3s2)NC(=S)N1c1ccccc1
TGI (SN12C renal): > 100 µM | TGI (MOLT-4 leukemia): > 100 µM | TGI (RPMI-8226 leukemia): > 100 µM | TGI (MALME-3M melanoma): > 100 µM | TGI (U251 CNS): > 100 µM | TGI (COLO 205 colon): > 100 µM | TGI (SR leukemia): 49.6 µM | TGI (SW-620 colon): > 100 µM | TGI (SF-268 CNS): > 100 µM | TGI (NCI-H226 lung): > 100 µM | TGI (TK-10 renal): > 100 µM | TGI (MDA-MB-231 breast): > 100 µM | TGI (MDA-MB-435): > 100 µM | TGI (NCI-H522 lung): > 100 µM | TGI (DU-145 prostate): > 100 µM | TGI (BT-549 breast): > 100 µM | TGI (SK-MEL-2 melanoma): > 100 µM | TGI (HOP-62 NSCLC): > 100 µM | TGI (SF-295 CNS): > 100 µM | TGI (SNB-75 CNS): > 100 µM | TGI (HS 578T breast): > 100 µM | TGI (HCC-2998 colon): > 100 µM | TGI (UO-31 renal): > 100 µM | TGI (CAKI-1 renal): > 100 µM | TGI (HCT-116 colon): > 100 µM | TGI (IGROV1 ovarian): > 100 µM | TGI (HL-60(TB) leukemia): 66.9 µM | TGI (OVCAR-4 ovarian): > 100 µM | TGI (NCI-H23 lung): > 100 µM | TGI (NCI/ADR-RES ovarian): > 100 µM | TGI (K-562 leukemia): > 100 µM | TGI (OVCAR-5 ovarian): > 100 µM | TGI (KM12 colon): > 100 µM | TGI (LOX IMVI melanoma): > 100 µM | TGI (SK-MEL-28 melanoma): > 100 µM | TGI (UACC-62 melanoma): > 100 µM | TGI (ACHN renal): > 100 µM | TGI (MDA-N): > 100 µM | TGI (EKVX NSCLC): > 100 µM | TGI (SK-MEL-5 melanoma): > 100 µM | TGI (A498 renal): > 100 µM | TGI (HCT-15 colon): > 100 µM | TGI (OVCAR-8 ovarian): > 100 µM | TGI (SNB-19 CNS): > 100 µM | TGI (OVCAR-3 ovarian): > 100 µM | TGI (RXF 393 renal): > 100 µM | TGI (UACC-257 melanoma): > 100 µM | TGI (PC-3 prostate): > 100 µM | TGI (T-47D breast): > 100 µM | TGI (NCI-H460 lung): > 100 µM | TGI (786-0 renal): > 100 µM | TGI (MCF7 breast): > 100 µM | TGI (HT29 colon): > 100 µM

Cn1ncc2[nH]cnc2c1=S
TGI (SN12C renal): > 100 µM | TGI (MOLT-4 leukemia): > 100 µM | TGI (RPMI-8226 leukemia): > 100 µM | TGI (U251 CNS): > 100 µM | TGI (COLO 205 colon): > 100 µM | TGI (SR leukemia): > 100 µM | TGI (SW-620 colon): > 100 µM | TGI (A549 NSCLC): > 100 µM | TGI (SF-268 CNS): > 100 µM | TGI (NCI-H226 lung): > 100 µM | TGI (TK-10 renal): > 100 µM | TGI (MDA-MB-231 breast): > 100 µM | TGI (MDA-MB-435): > 100 µM | TGI (DU-145 prostate): > 100 µM | TGI (BT-549 breast): > 100 µM | TGI (SK-MEL-2 melanoma): > 100 µM | TGI (HOP-62 NSCLC): > 100 µM | TGI (SF-295 CNS): > 100 µM | TGI (SNB-75 CNS): > 100 µM | TGI (HS 578T breast): > 100 µM | TGI (UO-31 renal): > 100 µM | TGI (CAKI-1 renal): > 100 µM | TGI (HCT-116 colon): > 100 µM | TGI (IGROV1 ovarian): > 100 µM | TGI (SF-539 CNS): > 100 µM | TGI (HL-60(TB) leukemia): 24.6 µM | TGI (NCI-H23 lung): > 100 µM | TGI (NCI/ADR-RES ovarian): > 100 µM | TGI (K-562 leukemia): > 100 µM | TGI (OVCAR-5 ovarian): > 100 µM | TGI (KM12 colon): > 100 µM | TGI (SK-MEL-28 melanoma): > 100 µM | TGI (UACC-62 melanoma): > 100 µM | TGI (ACHN renal): > 100 µM | TGI (MDA-N): > 100 µM | TGI (EKVX NSCLC): > 100 µM | TGI (SK-MEL-5 melanoma): > 100 µM | TGI (CCRF-CEM leukemia): 66.8 µM | TGI (A498 renal): > 100 µM | TGI (HCT-15 colon): > 100 µM | TGI (OVCAR-8 ovarian): > 100 µM | TGI (SNB-19 CNS): > 100 µM | TGI (OVCAR-3 ovarian): > 100 µM | TGI (RXF 393 renal): > 100 µM | TGI (UACC-257 melanoma): > 100 µM | TGI (PC-3 prostate): > 100 µM | TGI (T-47D breast): > 100 µM | TGI (NCI-H460 lung): > 100 µM | TGI (786-0 renal): > 100 µM | TGI (MCF7 breast): > 100 µM | TGI (HT29 colon): > 100 µM | TGI (M14 melanoma): > 100 µM

CSC1=NN(c2ccccc2)C(=O)C1=C(SC)SC
TGI (SN12C renal): 97.8 µM | TGI (MOLT-4 leukemia): > 100 µM | TGI (RPMI-8226 leukemia): 47 µM | TGI (MALME-3M melanoma): 39.6 µM | TGI (U251 CNS): 87.6 µM | TGI (COLO 205 colon): 26 µM | TGI (SR leukemia): 83.7 µM | TGI (SW-620 colon): > 100 µM | TGI (A549 NSCLC): 64.6 µM | TGI (SF-268 CNS): > 100 µM | TGI (NCI-H226 lung): 39.9 µM | TGI (TK-10 renal): 74.6 µM | TGI (MDA-MB-231 breast): 53 µM | TGI (MDA-MB-435): > 100 µM | TGI (NCI-H522 lung): 25.5 µM | TGI (DU-145 prostate): > 100 µM | TGI (BT-549 breast): > 100 µM | TGI (SK-MEL-2 melanoma): 73.4 µM | TGI (SK-OV-3 ovarian): > 100 µM | TGI (SNB-75 CNS): 94.3 µM | TGI (HS 578T breast): > 100 µM | TGI (HCC-2998 colon): 91.7 µM | TGI (UO-31 renal): 37 µM | TGI (CAKI-1 renal): 43.9 µM | TGI (HCT-116 colon): 53.8 µM | TGI (SF-539 CNS): 70.3 µM | TGI (HL-60(TB) leukemia): 51.8 µM | TGI (OVCAR-4 ovarian): > 100 µM | TGI (NCI-H23 lung): 55.7 µM | TGI (NCI/ADR-RES ovarian): 49.2 µM | TGI (K-562 leukemia): 45.9 µM | TGI (OVCAR-5 ovarian): > 100 µM | TGI (KM12 colon): > 100 µM | TGI (LOX IMVI melanoma): 66.1 µM | TGI (SK-MEL-28 melanoma): > 100 µM | TGI (UACC-62 melanoma): 66.7 µM | TGI (MDA-N): > 100 µM | TGI (EKVX NSCLC): > 100 µM | TGI (SK-MEL-5 melanoma): 29.8 µM | TGI (CCRF-CEM leukemia): > 100 µM | TGI (A498 renal): 35.4 µM | TGI (HCT-15 colon): 76 µM | TGI (OVCAR-8 ovarian): 65.9 µM | TGI (SNB-19 CNS): 82 µM | TGI (OVCAR-3 ovarian): > 100 µM | TGI (RXF 393 renal): 62.7 µM | TGI (UACC-257 melanoma): 46.7 µM | TGI (PC-3 prostate): 47 µM | TGI (T-47D breast): 70.3 µM | TGI (NCI-H460 lung): 41.4 µM | TGI (786-0 renal): > 100 µM | TGI (MCF7 breast): 49.6 µM | TGI (HT29 colon): 43.5 µM | TGI (M14 melanoma): > 100 µM

Reference: PubChem BioAssay (NCI)
